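Protocol summary: plate cells (96-well), add compound at 5 concentrations, incubate 48 h, interpolate endpoints linearly. TGI: concentration producing complete growth inhibition.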
What was measured:
Experiment in all cases: DTP human tumour cell line panel, 48 h
[1] = tested on: MDA-N
[2] = tested on: MCF7 breast
[3] = tested on: T-47D breast
[4] = tested on: SR leukemia
[5] = tested on: SK-MEL-5 melanoma
[6] = tested on: HOP-92 NSCLC
[7] = tested on: NCI-H23 lung
[8] = tested on: NCI/ADR-RES ovarian
[9] = tested on: MALME-3M melanoma
[10] = tested on: SF-268 CNS
[11] = tested on: A549 NSCLC
[12] = tested on: SW-620 colon
[13] = tested on: OVCAR-5 ovarian
[14] = tested on: NCI-H460 lung
[15] = tested on: PC-3 prostate
[16] = tested on: KM12 colon
[17] = tested on: HS 578T breast
[18] = tested on: TK-10 renal
[19] = tested on: HT29 colon
[20] = tested on: NCI-H522 lung
[21] = tested on: HL-60(TB) leukemia
[22] = tested on: K-562 leukemia
[23] = tested on: SK-MEL-28 melanoma
[24] = tested on: CCRF-CEM leukemia
[25] = tested on: RPMI-8226 leukemia
[26] = tested on: 786-0 renal
[27] = tested on: DU-145 prostate
[28] = tested on: MDA-MB-435
[29] = tested on: ACHN renal
[30] = tested on: OVCAR-3 ovarian
[31] = tested on: M14 melanoma
[32] = tested on: SK-MEL-2 melanoma
[33] = tested on: SNB-19 CNS
[34] = tested on: COLO 205 colon
[35] = tested on: OVCAR-8 ovarian
[36] = tested on: HOP-62 NSCLC
[37] = tested on: HCT-116 colon
[38] = tested on: HCC-2998 colon
[39] = tested on: UACC-257 melanoma
[40] = tested on: UACC-62 melanoma
[41] = tested on: IGROV1 ovarian
[42] = tested on: OVCAR-4 ovarian
[43] = tested on: LOX IMVI melanoma
[44] = tested on: SK-OV-3 ovarian
[45] = tested on: SF-295 CNS
[46] = tested on: MOLT-4 leukemia
[47] = tested on: U251 CNS
[48] = tested on: UO-31 renal
[49] = tested on: EKVX NSCLC

Cc1c(Cl)c(=O)oc2cc(OCC(O)COC(C)C)ccc12 (centres undefined)
TGI [1]: > 100 µM | TGI [2]: 65.3 µM | TGI [3]: > 100 µM | TGI [4]: 73.2 µM | TGI [5]: 38.3 µM | TGI [6]: > 100 µM | TGI [7]: > 100 µM | TGI [8]: > 100 µM | TGI [9]: 35.8 µM | TGI [10]: > 100 µM | TGI [11]: > 100 µM | TGI [12]: > 100 µM | TGI [13]: > 100 µM | TGI [14]: > 100 µM | TGI [15]: > 100 µM | TGI [16]: > 100 µM | TGI [17]: > 100 µM | TGI [18]: > 100 µM | TGI [19]: > 100 µM | TGI [20]: > 100 µM | TGI [21]: 56.9 µM | TGI [22]: > 100 µM | TGI [23]: > 100 µM | TGI [24]: > 100 µM | TGI [25]: > 100 µM | TGI [26]: > 100 µM | TGI [27]: > 100 µM | TGI [28]: > 100 µM | TGI [29]: > 100 µM | TGI [30]: > 100 µM | TGI [31]: 92.4 µM | TGI [32]: 58.2 µM | TGI [33]: > 100 µM | TGI [34]: 47.8 µM | TGI [35]: > 100 µM | TGI [36]: > 100 µM | TGI [37]: > 100 µM | TGI [38]: 37.3 µM | TGI [39]: > 100 µM | TGI [40]: > 100 µM | TGI [41]: > 100 µM | TGI [42]: > 100 µM | TGI [43]: > 100 µM | TGI [44]: > 100 µM | TGI [45]: > 100 µM | TGI [46]: 66.9 µM | TGI [47]: > 100 µM | TGI [48]: > 100 µM | TGI [49]: > 100 µM
